In patent US9201173B2, “Polarizer protective film, polarizer, and liquid crystal display device” (FUJIFILM CORPORATION, priority 2010, dated 2015) one finds acid dissociation constant data, which are given here for 1 compound.

The data set in a line: Acid dissociation constant by alkali titration. In kind it is physicochemical. Particulars: mixed solvent of tetrahydrofuran/water=6/4 by volume at 25° C. As to the method:
For measurement of the acid dissociation constant in the invention, employed is the alkali titration method described in Experimental Chemistry Course, 2nd Ed., pp. 215-217 (published by Maruzen).
The organic acid A is Tokyo Chemical's 1-benzyl-5-phenylbarbituric acid, and its acid dissociation constant in a mixed solvent of tetrahydrofuran/water=6/4 by volume at 25° C. is 4.0.

Compound `O=C1NC(=O)N(Cc2ccccc2)C(=O)C1c1ccccc1` (stereo not shown) [organic acid A, 1-benzyl-5-phenylbarbituric acid] came in with an acid dissociation constant of 4.0.
